{"source": "patent US11959086B2", "about": "“Dual transit peptides for targeting polypeptides” (BASF AGRO B.V., priority 2016, dated 2024)", "key": {"[1]": {"test_system": "Arabidopsis plants, construct hemG_tpFNR (SEQ ID NO 117)", "experiment": "Tolerance of transgenic T1 Arabidopsis plants to herbicides, greenhouse (Tolerance Factor)", "assay_type": "in vivo, Arabidopsis thaliana"}, "[2]": {"test_system": "Arabidopsis plants, construct hemG_tpsAMATU_PPO2 (SEQ ID NO 119)", "experiment": "Tolerance of transgenic T1 Arabidopsis plants to herbicides, greenhouse (Tolerance Factor)", "assay_type": "in vivo, Arabidopsis thaliana"}, "[3]": {"test_system": "Arabidopsis plants, construct hemG_tplAMATU_PPO2 (SEQ ID NO 118)", "experiment": "Tolerance of transgenic T1 Arabidopsis plants to herbicides, greenhouse (Tolerance Factor)", "assay_type": "in vivo, Arabidopsis thaliana"}, "[4]": {"test_system": "Arabidopsis plants, construct hemF_tpFNR (SEQ ID NO 114)", "experiment": "Tolerance of transgenic T1 Arabidopsis plants to herbicides, greenhouse (Tolerance Factor)", "assay_type": "in vivo, Arabidopsis thaliana"}, "[5]": {"test_system": "Arabidopsis plants, construct hemF_tpsAMATU_PPO2 (SEQ ID NO 116)", "experiment": "Tolerance of transgenic T1 Arabidopsis plants to herbicides, greenhouse (Tolerance Factor)", "assay_type": "in vivo, Arabidopsis thaliana"}, "[6]": {"test_system": "Arabidopsis plants, construct hemF_tplAMATU_PPO2 (SEQ ID NO 115)", "experiment": "Tolerance of transgenic T1 Arabidopsis plants to herbicides, greenhouse (Tolerance Factor)", "assay_type": "in vivo, Arabidopsis thaliana"}, "[7]": {"test_system": "Arabidopsis plants, construct RHOMA_PPO_wt_tpFNR (SEQ ID NO 123)", "experiment": "Tolerance of transgenic T1 Arabidopsis plants to herbicides, greenhouse (Tolerance Factor)", "assay_type": "in vivo, Arabidopsis thaliana"}, "[8]": {"test_system": "Arabidopsis plants, construct RHOMA_PPO_wt_tpAMATU_PPO2 (SEQ ID NO 127)", "experiment": "Tolerance of transgenic T1 Arabidopsis plants to herbicides, greenhouse (Tolerance Factor)", "assay_type": "in vivo, Arabidopsis thaliana"}, "[9]": {"test_system": "Arabidopsis plants, construct RHOMA_PPO_F420V_tpFNR (SEQ ID NO 124)", "experiment": "Tolerance of transgenic T1 Arabidopsis plants to herbicides, greenhouse (Tolerance Factor)", "assay_type": "in vivo, Arabidopsis thaliana"}, "[10]": {"test_system": "Arabidopsis plants, construct OPITE_PPO_wt_tpFNR (SEQ ID NO 121)", "experiment": "Tolerance of transgenic T1 Arabidopsis plants to herbicides, greenhouse (Tolerance Factor)", "assay_type": "in vivo, Arabidopsis thaliana"}, "[11]": {"test_system": "Arabidopsis plants, construct CHLSP_PPO_wt_tpFNR (SEQ ID NO 128)", "experiment": "Tolerance of transgenic T1 Arabidopsis plants to herbicides, greenhouse (Tolerance Factor)", "assay_type": "in vivo, Arabidopsis thaliana"}, "[12]": {"test_system": "Wildtype/non-transgenic Arabidopsis thaliana", "experiment": "Herbicide injury evaluation of Arabidopsis plants, greenhouse", "assay_type": "in vivo", "conditions": "scale 0-100"}, "[13]": {"test_system": "transgenic Arabidopsis thaliana, transgene SEQ ID NO 119", "experiment": "Herbicide injury evaluation of Arabidopsis plants, greenhouse", "assay_type": "in vivo", "conditions": "Table 3, scale 0-100"}, "[14]": {"test_system": "transgenic Arabidopsis thaliana, transgene SEQ ID NO 117", "experiment": "Herbicide injury evaluation of Arabidopsis plants, greenhouse", "assay_type": "in vivo", "conditions": "Table 3, scale 0-100"}, "[15]": {"test_system": "transgenic Arabidopsis thaliana, transgene SEQ ID NO 118", "experiment": "Herbicide injury evaluation of Arabidopsis plants, greenhouse", "assay_type": "in vivo", "conditions": "scale 0-100"}, "[16]": {"test_system": "transgenic Arabidopsis thaliana, transgene SEQ ID NO 121", "experiment": "Herbicide injury evaluation of Arabidopsis plants, greenhouse", "assay_type": "in vivo", "conditions": "Table 3, scale 0-100"}, "[17]": {"test_system": "transgenic Arabidopsis thaliana, transgene SEQ ID NO 128", "experiment": "Herbicide injury evaluation of Arabidopsis plants, greenhouse", "assay_type": "in vivo", "conditions": "Table 3, scale 0-100"}, "[18]": {"test_system": "transgenic Arabidopsis thaliana, transgene SEQ ID NO 120", "experiment": "Herbicide injury evaluation of Arabidopsis plants, greenhouse", "assay_type": "in vivo", "conditions": "Table 4, scale 0-100"}}, "data": [{"molecule": "C#CCN1C(=O)C(F)(F)Oc2cc(F)c(-n3c(=O)n(C)c(=S)n(C)c3=O)cc21", "note": "[Trifludimoxazine, 1,5-dimethyl-6-thioxo-3-(2,2,7-trifluoro-3-oxo-4-(prop-2-ynyl)-3,4-dihydro-2H-benzo[b][1,4]oxazin-6-yl)-1,3,5-triazinane-2,4-dione]", "values": [{"measurement": "Tolerance Factor", "setting": "[1]", "result": 4433}, {"measurement": "Tolerance Factor", "setting": "[2]", "result": 1}, {"measurement": "Tolerance Factor", "setting": "[3]", "result": 9167}, {"measurement": "Tolerance Factor", "setting": "[4]", "result": 1}, {"measurement": "Tolerance Factor", "setting": "[5]", "result": 1}, {"measurement": "Tolerance Factor", "setting": "[6]", "result": 1}, {"measurement": "Tolerance Factor", "setting": "[7]", "result": 1}, {"measurement": "Tolerance Factor", "setting": "[8]", "result": 1}, {"measurement": "Tolerance Factor", "setting": "[9]", "result": 1}, {"measurement": "Tolerance Factor", "setting": "[10]", "result": 9}, {"measurement": "Tolerance Factor", "setting": "[11]", "result": 1500}, {"measurement": "Herbicide injury evaluation 14 days after herbicide treatment", "setting": "[12]; Table 3, 25 g ai/ha + 1% MSO", "result": 100}, {"measurement": "Herbicide injury evaluation 14 days after herbicide treatment", "setting": "[12]; Table 3, 75 g ai/ha + 1% MSO", "result": 100}, {"measurement": "Herbicide injury evaluation 14 days after herbicide treatment", "setting": "[12]; Table 3, 150 g ai/ha + 1% MSO", "result": 100}, {"measurement": "Herbicide injury evaluation 14 days after herbicide treatment", "setting": "[12]; Table 4, 25 g ai/ha + 1% MSO", "result": 100}, {"measurement": "Herbicide injury evaluation 14 days after herbicide treatment", "setting": "[12]; Table 4, 75 g ai/ha + 1% MSO", "result": 100}, {"measurement": "Herbicide injury evaluation 14 days after herbicide treatment", "setting": "[12]; Table 4, 150 g ai/ha + 1% MSO", "result": 100}, {"measurement": "Herbicide injury evaluation 14 days after herbicide treatment", "setting": "[13]; SEQ ID NO 119 A, 25 g ai/ha + 1% MSO", "result": 100}, {"measurement": "Herbicide injury evaluation 14 days after herbicide treatment", "setting": "[13]; SEQ ID NO 119 A, 75 g ai/ha + 1% MSO", "result": 100}, {"measurement": "Herbicide injury evaluation 14 days after herbicide treatment", "setting": "[13]; SEQ ID NO 119 A, 150 g ai/ha + 1% MSO", "result": 100}, {"measurement": "Herbicide injury evaluation 14 days after herbicide treatment", "setting": "[13]; SEQ ID NO 119 B, 25 g ai/ha + 1% MSO", "result": 100}, {"measurement": "Herbicide injury evaluation 14 days after herbicide treatment", "setting": "[13]; SEQ ID NO 119 B, 75 g ai/ha + 1% MSO", "result": 100}, {"measurement": "Herbicide injury evaluation 14 days after herbicide treatment", "setting": "[13]; SEQ ID NO 119 B, 150 g ai/ha + 1% MSO", "result": 100}, {"measurement": "Herbicide injury evaluation 14 days after herbicide treatment", "setting": "[14]; SEQ ID NO 117 C, 25 g ai/ha + 1% MSO", "result": 92}, {"measurement": "Herbicide injury evaluation 14 days after herbicide treatment", "setting": "[14]; SEQ ID NO 117 C, 75 g ai/ha + 1% MSO", "result": 93}, {"measurement": "Herbicide injury evaluation 14 days after herbicide treatment", "setting": "[14]; SEQ ID NO 117 C, 150 g ai/ha + 1% MSO", "result": 97}, {"measurement": "Herbicide injury evaluation 14 days after herbicide treatment", "setting": "[14]; SEQ ID NO 117 I, 25 g ai/ha + 1% MSO", "result": 90}, {"measurement": "Herbicide injury evaluation 14 days after herbicide treatment", "setting": "[14]; SEQ ID NO 117 I, 75 g ai/ha + 1% MSO", "result": 99}, {"measurement": "Herbicide injury evaluation 14 days after herbicide treatment", "setting": "[14]; SEQ ID NO 117 I, 150 g ai/ha + 1% MSO", "result": 98}, {"measurement": "Herbicide injury evaluation 14 days after herbicide treatment", "setting": "[15]; Table 3, SEQ ID NO 118 Q, 25 g ai/ha + 1% MSO", "result": 45}, {"measurement": "Herbicide injury evaluation 14 days after herbicide treatment", "setting": "[15]; Table 3, SEQ ID NO 118 Q, 75 g ai/ha + 1% MSO", "result": 50}, {"measurement": "Herbicide injury evaluation 14 days after herbicide treatment", "setting": "[15]; Table 3, SEQ ID NO 118 Q, 150 g ai/ha + 1% MSO", "result": 58}, {"measurement": "Herbicide injury evaluation 14 days after herbicide treatment", "setting": "[15]; Table 3, SEQ ID NO 118 R, 25 g ai/ha + 1% MSO", "result": 20}, {"measurement": "Herbicide injury evaluation 14 days after herbicide treatment", "setting": "[15]; Table 3, SEQ ID NO 118 R, 75 g ai/ha + 1% MSO", "result": 23}, {"measurement": "Herbicide injury evaluation 14 days after herbicide treatment", "setting": "[15]; Table 3, SEQ ID NO 118 R, 150 g ai/ha + 1% MSO", "result": 10}, {"measurement": "Herbicide injury evaluation 14 days after herbicide treatment", "setting": "[15]; Table 4, SEQ ID NO 118 Q, 25 g ai/ha + 1% MSO", "result": 60}, {"measurement": "Herbicide injury evaluation 14 days after herbicide treatment", "setting": "[15]; Table 4, SEQ ID NO 118 Q, 75 g ai/ha + 1% MSO", "result": 63}, {"measurement": "Herbicide injury evaluation 14 days after herbicide treatment", "setting": "[15]; Table 4, SEQ ID NO 118 Q, 150 g ai/ha + 1% MSO", "result": 65}, {"measurement": "Herbicide injury evaluation 14 days after herbicide treatment", "setting": "[15]; Table 4, SEQ ID NO 118 R, 25 g ai/ha + 1% MSO", "result": 18}, {"measurement": "Herbicide injury evaluation 14 days after herbicide treatment", "setting": "[15]; Table 4, SEQ ID NO 118 R, 75 g ai/ha + 1% MSO", "result": 28}, {"measurement": "Herbicide injury evaluation 14 days after herbicide treatment", "setting": "[15]; Table 4, SEQ ID NO 118 R, 150 g ai/ha + 1% MSO", "result": 50}, {"measurement": "Herbicide injury evaluation 14 days after herbicide treatment", "setting": "[16]; SEQ ID NO 121 G, 25 g ai/ha + 1% MSO", "result": 100}, {"measurement": "Herbicide injury evaluation 14 days after herbicide treatment", "setting": "[16]; SEQ ID NO 121 G, 75 g ai/ha + 1% MSO", "result": 100}, {"measurement": "Herbicide injury evaluation 14 days after herbicide treatment", "setting": "[16]; SEQ ID NO 121 G, 150 g ai/ha + 1% MSO", "result": 100}, {"measurement": "Herbicide injury evaluation 14 days after herbicide treatment", "setting": "[16]; SEQ ID NO 121 H, 25 g ai/ha + 1% MSO", "result": 100}, {"measurement": "Herbicide injury evaluation 14 days after herbicide treatment", "setting": "[16]; SEQ ID NO 121 H, 75 g ai/ha + 1% MSO", "result": 100}, {"measurement": "Herbicide injury evaluation 14 days after herbicide treatment", "setting": "[16]; SEQ ID NO 121 H, 150 g ai/ha + 1% MSO", "result": 100}, {"measurement": "Herbicide injury evaluation 14 days after herbicide treatment", "setting": "[17]; SEQ ID NO 128 D, 25 g ai/ha + 1% MSO", "result": 85}, {"measurement": "Herbicide injury evaluation 14 days after herbicide treatment", "setting": "[17]; SEQ ID NO 128 D, 75 g ai/ha + 1% MSO", "result": 93}, {"measurement": "Herbicide injury evaluation 14 days after herbicide treatment", "setting": "[17]; SEQ ID NO 128 D, 150 g ai/ha + 1% MSO", "result": 93}, {"measurement": "Herbicide injury evaluation 14 days after herbicide treatment", "setting": "[17]; SEQ ID NO 128 E, 25 g ai/ha + 1% MSO", "result": 85}, {"measurement": "Herbicide injury evaluation 14 days after herbicide treatment", "setting": "[17]; SEQ ID NO 128 E, 75 g ai/ha + 1% MSO", "result": 95}, {"measurement": "Herbicide injury evaluation 14 days after herbicide treatment", "setting": "[17]; SEQ ID NO 128 E, 150 g ai/ha + 1% MSO", "result": 97}, {"measurement": "Herbicide injury evaluation 14 days after herbicide treatment", "setting": "[18]; SEQ ID NO 120 J, 25 g ai/ha + 1% MSO", "result": 80}, {"measurement": "Herbicide injury evaluation 14 days after herbicide treatment", "setting": "[18]; SEQ ID NO 120 J, 75 g ai/ha + 1% MSO", "result": 94}, {"measurement": "Herbicide injury evaluation 14 days after herbicide treatment", "setting": "[18]; SEQ ID NO 120 J, 150 g ai/ha + 1% MSO", "result": 98}, {"measurement": "Herbicide injury evaluation 14 days after herbicide treatment", "setting": "[18]; SEQ ID NO 120 M, 25 g ai/ha + 1% MSO", "result": 94}, {"measurement": "Herbicide injury evaluation 14 days after herbicide treatment", "setting": "[18]; SEQ ID NO 120 M, 75 g ai/ha + 1% MSO", "result": 98}, {"measurement": "Herbicide injury evaluation 14 days after herbicide treatment", "setting": "[18]; SEQ ID NO 120 M, 150 g ai/ha + 1% MSO", "result": 93}]}]}
